Columns and labels:
Test in all cases: ABPP chemical proteomics (LC-MS/MS) in HEK293T cells
Assay type in all cases: cell-based
[1] = biological target: T1, RPS8 (Homo sapiens, UniProt P62241); conditions: IMP-2587 labelling vs DMSO, 30 nM, 10 min, HEK293T (Table S2, Fig.5a)
T1 construct: endogenous in cells; host or cells: HEK293T
In short: (§1)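 Cellular target engagement was assessed by probe competition. Labelled HEK293T lysates (≥400 µg protein) underwent copper-catalysed click ligation for 1 h at room temperature. Biotinylated proteins were pulled down on NeutrAvidin agarose in 0.2% SDS/HEPES pH 8.0 for 3 h before LC-MS/MS quantification.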

[2] = system: H2AFV;H2AFZ; conditions: IMP-2587 labelling vs DMSO, 30 nM, 10 min, HEK293T (Table S2, Fig.5a)
In short: as §1

[3] = biological target: T2, NPM3 (Homo sapiens, UniProt O75607); conditions: IMP-2587 labelling vs DMSO, 30 nM, 10 min, HEK293T (Table S2, Fig.5a)
T2 construct: endogenous in cells; host or cells: HEK293T
T2 sequence (O75607 whole entry): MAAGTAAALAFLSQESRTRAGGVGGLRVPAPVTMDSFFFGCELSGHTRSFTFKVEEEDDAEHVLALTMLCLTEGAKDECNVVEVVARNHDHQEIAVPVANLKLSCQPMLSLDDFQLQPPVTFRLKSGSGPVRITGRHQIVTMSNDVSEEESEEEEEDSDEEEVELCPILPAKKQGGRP
In short: as §1

[4] = biological target: T3, TMEM263 (Homo sapiens, UniProt Q8WUH6); conditions: IMP-2586 labelling vs DMSO, 30 nM, 10 min, HEK293T (Table S4, Fig.5c)
T3 construct: endogenous in cells; host or cells: HEK293T
In short: as §1

[5] = biological target: T4, RER1 (Homo sapiens, UniProt O15258); conditions: IMP-2586 labelling vs DMSO, 30 nM, 10 min, HEK293T (Table S4, Fig.5c)
T4 construct: endogenous in cells; host or cells: HEK293T
T4 sequence (O15258 whole entry): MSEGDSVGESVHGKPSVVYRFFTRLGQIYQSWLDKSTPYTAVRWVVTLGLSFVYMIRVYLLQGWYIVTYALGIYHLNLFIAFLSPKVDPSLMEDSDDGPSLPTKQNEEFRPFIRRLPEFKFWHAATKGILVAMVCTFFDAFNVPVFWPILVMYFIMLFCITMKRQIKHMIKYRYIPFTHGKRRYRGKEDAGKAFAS
In short: as §1

Row | Compound | Difference (log2 fold change of enrichment) [1] | Difference (log2 fold change of enrichment) [2] | Difference (log2 fold change of enrichment) [3] | Difference (log2 fold change of enrichment) [4] | Difference (log2 fold change of enrichment) [5]
1 | C#Cc1cccc(-c2cc(NC(=O)CC3CCN(C#N)C3)on2)c1 (centres unmarked) [IMP-2587] | -0.44 | 0.65 | 0.89 | – | –
2 | N#CN1CC[C@@H](NC(=O)c2cc(-c3ccccc3Oc3ccc(N=[N+]=[N-])cc3)n[nH]2)C1 [IMP-2586] | – | – | – | -0.44 | -1.34
